Here are results for 1 molecule from patent US20050004017A1, “Methods and compositions for treating hcap associated diseases” (priority 2001, published 2005).

The test system of this test is HCAP interaction with ErbB-2. In words: Co-immunoprecipitation of HCAP with anti-ErbB-2 antibody from radicicol-treated T47D cells. It counts as cell-based. The note with it: T47D cells treated with radicicol (3 μM) for 0, 3 or 6 hours; gel electrophoresis, bands identified by mass spectroscopy. As to the method: Band numbers 30 and 35 were identified by mass spectroscopic analysis as hepatocellular associated protein (HCAP). […] T47D cells, a breast cancer cell line that is mutant for the p53 tumor suppressor gene and ErbB-2 positive, were treated with radicicol (RA) for 0, 3 or 6 hours, and then proteins were immunoprecipitated using an anti-ErbB-2 antibody and resolved by gel electrophoresis. […] Band nos. 30 and 35 were identified by mass spectroscopic analysis to be hepatocarcinoma associated protein (HCAP). The amount of HCAP immunoprecipitated with anti-ErbB-2 antibody decreased in the presence of RA.

Take `C[C@@H]1C[C@H]2O[C@@H]2/C=C\C=C\C(=O)Cc2c(Cl)c(O)cc(O)c2C(=O)O1` [radicicol, Radicicol]: the “amount of HCAP immunoprecipitated with anti-ErbB-2 antibody” value is “decreased”.
